Laboratory results: patent US12128035B2, “Activating pyruvate kinase R” (Novo Nordisk Health Care AG, priority 2021, dated 2024)
“And” between values parts separate entries of the source, which are not always exact repeats. Identical values can stand only once.

Key:
[1] = type: physicochemical
Source text: [drawing 2] is a selective, orally bioavailable PKR Activating Compound that decreases 2,3-DPG, increases ATP, and has anti-sickling effects in disease models with a wide therapeutic margin relative to preclinical toxicity. Compound 1 is a potent activator of PKR and a multi-modal metabolic modulator of RBCs. Activation of PKR simultaneously reduces 2,3-DPG concentrations, which increases hemoglobin-oxygen affinity and decreases sickling, while also increasing intracellular ATP, which improves RBC health and reduces hemolysis, or RBC death. Compound 1 is a BCS class II compound with poor water solubility and high permeability.

[2] = biological target: T1, wt-PKR in mature human erythrocytes (Homo sapiens, UniProt P30613); assay: Cell assay: PKR activation in human RBCs (Biovision Pyruvate Kinase Assay); type: cell-based; conditions: 3 hr treatment
T1 construct: host or cells: purified human RBCs from donors
T1 sequence (P30613 whole entry): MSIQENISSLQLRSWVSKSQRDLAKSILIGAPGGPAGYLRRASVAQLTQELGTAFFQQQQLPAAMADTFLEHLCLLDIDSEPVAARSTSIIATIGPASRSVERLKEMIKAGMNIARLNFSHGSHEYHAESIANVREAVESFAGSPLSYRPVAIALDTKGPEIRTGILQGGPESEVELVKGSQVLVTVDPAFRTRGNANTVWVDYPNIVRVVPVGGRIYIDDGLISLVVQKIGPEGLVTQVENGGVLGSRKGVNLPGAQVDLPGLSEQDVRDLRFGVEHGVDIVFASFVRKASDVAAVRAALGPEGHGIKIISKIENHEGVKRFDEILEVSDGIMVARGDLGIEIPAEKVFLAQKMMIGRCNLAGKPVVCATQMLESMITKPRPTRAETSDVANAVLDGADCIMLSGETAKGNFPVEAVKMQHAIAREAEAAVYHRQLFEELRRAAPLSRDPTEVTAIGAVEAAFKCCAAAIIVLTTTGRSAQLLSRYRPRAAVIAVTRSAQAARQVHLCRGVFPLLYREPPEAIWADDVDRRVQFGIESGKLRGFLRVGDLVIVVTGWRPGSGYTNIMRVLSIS
Experimental: The activation of wt-PKR by Compound 1 in mature human erythrocytes ex vivo was evaluated in purified RBCs purchased from Research Blood Components. Cells treated with Compound 1 for 3 hr in glucose-containing media were washed, lysed, and assayed using a Biovision Pyruvate Kinase Assay (K709-100). The assay was repeated multiple times to account for donor-to-donor variability and the relatively narrow dynamic range.

[3] = Phase 1: hematologic and hemolytic laboratory parameters in SCD patients; type: in vivo, human; conditions: SCD single 700 mg dose
2,3-DPG blood levels = assay: Phase 1: blood 2,3-DPG in SCD patients; type: in vivo, human
Experimental: In this study, SAD/MAD cohorts are randomized (3 to 1) to receive Compound 1 or placebo (P). Compound 1 was evaluated first in 4 healthy SAD cohorts and 4 healthy MAD (14-day dosing period) cohorts. Based on the safety, and PK/PD profile from HS, Compound 1 is then evaluated in 1 SCD SAD cohort and 2 SCD MAD cohorts. Specifically, based on the safety and pharmacokinetic/pharmacodynamics (PK/PD) profile in healthy volunteer studies, Compound 1 is evaluated in patients (pts) with SCD, first in a single dose (SD or SAD) cohort and then in multiple-dose (MD or MAD) cohorts (14-day and 12-week). Safety assessments include AEs, vital signs, ECGs and laboratory parameters. PK/PD blood sampling was performed on Day 1 (SAD/MAD) and Day 14 (MAD) and up to 72 h after the last dose and at the end-of-study visit. PD parameters included 2,3-DPG, ATP, and p50 in all cohorts with additional PD studies (including oxygen scan) performed only in the SCD cohorts. PD parameters included 2,3-DPG, ATP, p50, RBC deformability with controlled deoxygenation and reoxygenation (Lorrca® oxygen scan) and varying osmolality (Lorrca® osmoscan)). To maintain study blind, pt identifiers were removed when needed.
The onset of the increase in ATP blood levels after a single 700 mg dose of Compound 1 was faster in SCD patients than in healthy volunteers, while the onset of the decrease in 2,3-DPG blood levels was slower.
The following procedures are employed for the analysis of ATP and 2,3-DPG in human whole blood K2EDTA using a protein precipitation extraction procedure and analysis by LC-MS/MS.
The following procedures are used for sample extraction prior to analysis via LC-MS/MS. 15.0 μL of the calibration standards, quality controls, matrix blanks, and samples are aliquoted into a 96-well plate. 50.0 μL of the internal standard spiking solution is added to all samples on the plate, with the exception of the matrix blank samples; 50.0 μL of water is added to the matrix blank samples. Subsequently, 150 μL of water is added to all samples on the plate. The plate is then covered and agitated by vortex at high speed for ten minutes, after which 750 μL of methanol is added to all samples on the plate. The plate is covered and agitated by vortex for approximately 1 minute. The plate is then centrifuged at approximately 3500 RPM at approximately 4° C. for five minutes. After centrifugation, a liquid handler is used to transfer 50 μL of each sample to a new 96-well plate, and 200 μL of acetonitrile is added to all samples on the plate. The newly prepared plate is covered and agitated by vortex for approximately 1 minute. The plate is then centrifuged at approximately 3500 RPM at approximately 4° C. for 2 minutes.

[4] = biological target: T2, PKR in mouse red blood cells (Mus musculus, UniProt P53657); assay: Cell assay: PKR activation in mouse RBCs; type: cell-based
T2 construct: endogenous in cells; host or cells: mouse RBCs freshly isolated from whole blood
T2 sequence (P53657 whole entry): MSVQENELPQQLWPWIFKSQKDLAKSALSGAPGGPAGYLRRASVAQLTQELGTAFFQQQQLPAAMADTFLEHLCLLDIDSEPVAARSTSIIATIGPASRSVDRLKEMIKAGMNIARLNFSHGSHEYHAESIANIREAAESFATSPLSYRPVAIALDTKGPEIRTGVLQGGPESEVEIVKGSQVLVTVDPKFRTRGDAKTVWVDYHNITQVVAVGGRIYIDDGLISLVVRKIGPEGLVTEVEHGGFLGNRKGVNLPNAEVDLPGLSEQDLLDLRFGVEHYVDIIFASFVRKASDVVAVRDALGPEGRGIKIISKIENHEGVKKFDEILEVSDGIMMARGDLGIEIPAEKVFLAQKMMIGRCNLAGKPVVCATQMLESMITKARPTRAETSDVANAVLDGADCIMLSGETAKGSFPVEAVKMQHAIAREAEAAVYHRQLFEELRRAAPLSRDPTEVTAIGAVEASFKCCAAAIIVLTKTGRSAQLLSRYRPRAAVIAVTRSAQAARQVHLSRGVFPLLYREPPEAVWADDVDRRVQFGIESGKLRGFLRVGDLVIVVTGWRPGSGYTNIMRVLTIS
Source text: Mouse RBCs were isolated fresh from whole blood using a Ficoll gradient and assayed with methods similar to those used in the human RBCs assays.

SMILES: O=C([C@H](CO)c1ccccc1)N1CC2=C(C1)CN(S(=O)(=O)c1cnc3c(c1)OCCO3)C2 (single isomer, unassigned) [Compound 1]
- BCS class [1]: BCS class II
- Max − Min (%), Mean ([2]; mean of replicates): < 100%
- Max − Min (%) ([2]; single replicates): <125% and <150% and <100% and <50%
- Hb difference versus placebo ([3]; 24 h): ~0.9 g/dL
- increase in Hb ([3]; 24 hours, range 0.3, 0.9): 0.5 g/dL
- mean percentage change in 2,3-DPG blood levels (2,3-DPG blood levels; SCD 300 mg QD, Day 1, 0 h after first daily dose): 0%
- mean percentage change in 2,3-DPG blood levels (2,3-DPG blood levels; SCD 300 mg QD, Day 1, 24 h after first daily dose): −23%
- mean percentage change in 2,3-DPG blood levels (2,3-DPG blood levels; SCD 300 mg QD, Day 14, 0 h after first daily dose): −25%
- mean percentage change in 2,3-DPG blood levels (2,3-DPG blood levels; SCD 300 mg QD, Day 14, 6 h after first daily dose): −29%
- mean percentage change in 2,3-DPG blood levels (2,3-DPG blood levels; SCD 300 mg QD, Day 14, 24 h after first daily dose): −29%
- mean percentage change in 2,3-DPG blood levels (2,3-DPG blood levels; SCD 300 mg QD, Day 14, 48 h after first daily dose): −22%
- mean percentage change in 2,3-DPG blood levels (2,3-DPG blood levels; SCD single 700 mg, 0 h after dose): 0%
- mean percentage change in 2,3-DPG blood levels (2,3-DPG blood levels; SCD single 700 mg, 6 h after dose): −16%
- mean percentage change in 2,3-DPG blood levels (2,3-DPG blood levels; SCD single 700 mg, 24 h after dose): −31%
- mean percentage change in 2,3-DPG blood levels (2,3-DPG blood levels; SCD single 700 mg, 48 h after dose): −21%
- mean percentage change in 2,3-DPG blood levels (2,3-DPG blood levels; SCD single 700 mg, 72 h after dose): −8%
- lag of maximum decrease in blood 2,3-DPG behind maximum plasma concentration (2,3-DPG blood levels; SCD single 700 mg, FIG. 54B): about 24 hours
- decrease in 2,3-DPG blood concentrations (2,3-DPG blood levels; SCD, 24 hours after single 700-mg dose, FIG. 46A): 26%
- Max − Min (%), Mean ([4]; mean of replicates): <100%
- Max − Min (%) ([4]; single replicates): <50% and <100%
